Assay results from ChEMBL document CHEMBL5241112, “Insights into the recent progress in the medicinal chemistry of pyranopyrimidine analogs” (RSC Med Chem, 2022).
In brackets after ≈: the same amount, converted by molar mass.

How the values were obtained:
[1] = system: Staphylococcus aureus; experiment: Antibacterial activity against Staphylococcus aureus ATCC 25923 assessed as inhibition of bacterial growth incubated for 24 hrs by broth macrodilution method; type: functional
[2] = system: MCF7; experiment: Anticancer activity against human MCF7 cells assessed as reduction in cell viability; type: functional, cell-based
[3] = system: Staphylococcus aureus; experiment: Antibacterial activity against Staphylococcus aureus ATCC 25923 assessed as diameter of inhibition zone incubated for 24 hrs by disc diffusion assay; type: functional
[4] = system: HepG2; experiment: Anticancer activity against human HepG2 cells assessed as reduction in cell viability; type: functional, cell-based
[5] = system: HCT-116; experiment: cells; conditions: Homo sapiens
[6] = system: Bacillus subtilis; experiment: Antibacterial activity against Bacillus subtilis ATCC 6633 assessed as inhibition of bacterial growth incubated for 24 hrs by broth macrodilution method; type: functional
[7] = system: Bacillus subtilis; experiment: Antibacterial activity against Bacillus subtilis ATCC 6633 assessed as diameter of inhibition zone incubated for 24 hrs by disc diffusion assay; type: functional
[8] = system: PC-3; experiment: Anticancer activity against human PC-3 cells assessed as tumor growth inhibition by sulforhodamine B assay; type: functional
[9] = system: PC-3; experiment: Anticancer activity against human PC-3 cells assessed as lethality by sulforhodamine B assay; type: functional; conditions: read-out: LC50 (the source's name)
[10] = system: MDA-MB-435; experiment: Anticancer activity against human MDA-MB-435 cells assessed as cell growth inhibition by sulforhodamine B assay; type: functional
[11] = system: PC-3; experiment: Anticancer activity against human PC-3 cells assessed as cell growth inhibition by sulforhodamine B assay; type: functional
[12] = system: OVCAR-3; experiment: Anticancer activity against human OVCAR-3 cells assessed as tumor growth inhibition by sulforhodamine B assay; type: functional
[13] = system: MDA-MB-435; experiment: Anticancer activity against human MDA-MB-435 cells assessed as tumor growth inhibition by sulforhodamine B assay; type: functional
[14] = system: MDA-MB-435; experiment: Anticancer activity against human MDA-MB-435 cells assessed as lethality by sulforhodamine B assay; type: functional; conditions: read-out: LC50 (the source's name)
[15] = system: OVCAR-3; experiment: Anticancer activity against human OVCAR-3 cells assessed as cell growth inhibition by sulforhodamine B assay; type: functional
[16] = system: OVCAR-3; experiment: Anticancer activity against human OVCAR-3 cells assessed as lethality by sulforhodamine B assay; type: functional; conditions: read-out: LC50 (the source's name)
[17] = system: Penicillium italicum; experiment: microbe, parasite or virus in culture; type: functional; conditions: CECT 2294, dose 50 mg/ml, time 24 hrs, read-out: DIZ
[18] = system: Aspergillus fumigatus; experiment: microbe, parasite or virus in culture; type: functional; conditions: ATCC204305, dose 50 mg/ml, time 24 hrs, read-out: DIZ
[19] = system: Escherichia coli; experiment: Antibacterial activity against Escherichia coli MTCC 443 assessed as bacterial growth inhibition by broth microdilution method; type: functional
[20] = system: Salmonella typhimurium; experiment: Antibacterial activity against Salmonella typhimurium MTCC 98 assessed as bacterial growth inhibition by broth microdilution method; type: functional, Salmonella enterica subsp. enterica serovar Typhimurium; conditions: Salmonella enterica
[21] = system: Clostridium tetani; experiment: Antibacterial activity against Clostridium tetani MTCC 449 assessed as bacterial growth inhibition by broth microdilution method; type: functional
[22] = system: Aspergillus fumigatus; experiment: Antifungal activity against Aspergillus fumigatus MTCC 227 assessed as fungal growth inhibition by broth microdilution method; type: functional
[23] = system: Mycobacterium tuberculosis; experiment: Antitubercular activity against Mycobacterium tuberculosis H37Rv assessed as bacterial growth inhibition at 100 ug/ml; type: functional
[24] = system: Mycobacterium tuberculosis; experiment: Antitubercular activity against Mycobacterium tuberculosis H37Rv assessed as bacterial growth inhibition at 250 ug/ml; type: functional
[25] = system: Bacillus subtilis; experiment: Antimicrobial activity against Bacillus subtilis assessed as diameter of inhibition zone by agar well diffusion method; type: functional
[26] = system: Escherichia coli; experiment: Antimicrobial activity against Escherichia coli assessed as diameter of inhibition zone by agar well diffusion method; type: functional
[27] = system: Aspergillus niger; experiment: Antifungal activity against Aspergillus niger assessed as inhibition of fungal growth by microdilution method; type: functional
[28] = system: Enterobacter cloacae; experiment: Antibacterial activity against Enterobacter cloacae assessed as inhibition of bacterial growth by microdilution method; type: functional
[29] = system: Enterococcus faecalis; experiment: Antibacterial activity against […] assessed as minimum bactericidal concentration by microdilution method; type: functional
[30] = system: Aspergillus niger; experiment: […] activity against Aspergillus niger assessed as […] by microdilution method; type: functional
[31] = system: Candida albicans; experiment: Antifungal activity against Candida albicans assessed as inhibition of fungal growth by microdilution method; type: functional
[32] = system: Bacillus pumilus; experiment: Antibacterial activity against Bacillus pumilus assessed as inhibition of bacterial growth at MIC by microdilution method; type: functional
[33] = system: Candida albicans; experiment: […] activity against Candida albicans assessed as […] by microdilution method; type: functional
[34] = system: Bacillus pumilus; experiment: Antibacterial activity against Bacillus pumilus assessed as minimum bactericidal concentration by microdilution method; type: functional
[35] = system: Enterococcus faecalis; experiment: Antibacterial activity against […] assessed as inhibition of bacterial growth at MIC by microdilution method; type: functional
[36] = system: Candida albicans; experiment: Antifungal activity against Candida albicans assessed as inhibition of fungal growth at MIC by microdilution method; type: functional
[37] = system: Bacillus pumilus; experiment: Antibacterial activity against Bacillus pumilus assessed as inhibition of bacterial growth by microdilution method; type: functional
[38] = system: Enterobacter cloacae; experiment: Antibacterial activity against Enterobacter cloacae assessed as inhibition of bacterial growth at MIC by microdilution method; type: functional
[39] = system: Escherichia coli; experiment: Antibacterial activity against Escherichia coli assessed as inhibition of bacterial growth by microdilution method; type: functional
[40] = system: Enterococcus faecalis; experiment: Antibacterial activity against […] assessed as inhibition of bacterial growth by microdilution method; type: functional
[41] = system: Aspergillus niger; experiment: Antifungal activity against Aspergillus niger assessed as inhibition of fungal growth at MIC by microdilution method; type: functional
[42] = system: Enterobacter cloacae; experiment: Antibacterial activity against Enterobacter cloacae assessed as minimum bactericidal concentration by microdilution method; type: functional
[43] = system: Staphylococcus aureus; experiment: Antibacterial activity against Staphylococcus aureus MTCC 96 assessed as minimum bactericidal concentration; type: functional
[44] = system: Staphylococcus aureus; experiment: Antibacterial activity against Staphylococcus aureus MLS-16 MTCC 2940 assessed as bacterial growth inhibition; type: functional
[45] = system: Bacillus subtilis; experiment: Antibacterial activity against Bacillus subtilis MTCC 121 assessed as minimum bactericidal concentration; type: functional
[46] = system: Escherichia coli; experiment: Antibacterial activity against Escherichia coli MTCC 739 assessed as bacterial growth inhibition; type: functional
[47] = system: Staphylococcus aureus; experiment: Antibacterial activity against Staphylococcus aureus MLS-16 MTCC 2940 assessed as minimum bactericidal concentration; type: functional
[48] = system: Raoultella planticola; experiment: Antibacterial activity against Raoultella planticola MTCC 530 assessed as bacterial growth inhibition; type: functional; conditions: Klebsiella planticola
[49] = system: Micrococcus luteus; experiment: Antibacterial activity against Micrococcus luteus MTCC 2470 assessed as bacterial growth inhibition; type: functional
[50] = system: Bacillus subtilis; experiment: Antibacterial activity against Bacillus subtilis MTCC 121 assessed as bacterial growth inhibition; type: functional
[51] = system: Pseudomonas aeruginosa; experiment: Antibacterial activity against Pseudomonas aeruginosa MTCC 2453 assessed as bacterial growth inhibition; type: functional
[52] = system: Plasmodium falciparum; experiment: microbe, parasite or virus in culture
[53] = system: Vibrio cholerae; experiment: Antibacterial activity against Vibrio cholerae MTCC 3906 assessed as bacterial growth inhibition by broth microdilution method; type: functional

In the case of COc1ccc(C2c3c([nH]c(=O)[nH]c3=O)Oc3ncn(C(N)=O)c(=N)c32)cc1 (configuration not stated), the MIC [1] is reported as 0.781 µg/mL (≈ 2.04 µM), the IC50 [2] is reported as 2.43 µM and the “diameter of the inhibition zone (DIZ)” value [3] is reported as 21.7 mm. It also gave an IC50 [4] of 2.09 µM, an IC50 [5] of 2.61 µM and an MIC [6] of 0.097 µg/mL (≈ 0.254 µM). The “diameter of the inhibition zone (DIZ)” value [7] was 26 mm.
For N#CC1=C(N)Oc2[nH]c(=O)[nH]c(=O)c2C1c1ccco1 (configuration not stated), the TGI [8] was 98.8%, the CC50 [9] was over 100 µM and the GI50 [10] was over 100 µM. For the same molecule, the GI50 [11] was over 100 µM, the TGI [12] was over 100% and the TGI [13] was over 100%. It also gave a CC50 [14] of over 100 µM, a GI50 [15] of over 100 µM and a CC50 [16] of over 100 µM.
Clc1ccc(COC(Cn2ccnc2)c2ccc(Cl)cc2Cl)c(Cl)c1 (configuration not stated) [MICONAZOLE NITRATE] showed a zone of inhibition at 50000 µg/mL [17] of 17 mm and a zone of inhibition at 50000 µg/mL [18] of 19 mm.
CCOC(=O)C1=C(N)Oc2c(c(=O)n(C)c(=O)n2C)C1c1c(C)nn(-c2ccccc2)c1-n1ccnc1 (configuration not stated) showed an MIC [19] of 62.5 µg/mL (≈ 124 µM), an MIC [20] of 100 µg/mL (≈ 199 µM) and an MIC [21] of 100 µg/mL (≈ 199 µM). The MIC [22] was 200 µg/mL (≈ 397 µM), the inhibition at 100 µg/mL [23] was 30% and the inhibition at 250 µg/mL [24] was 84%.
For C[C@H]1COc2c(N3CCN(C)CC3)c(F)cc3c(=O)c(C(=O)O)cn1c23.C[C@H]1COc2c(N3CCN(C)CC3)c(F)cc3c(=O)c(C(=O)O)cn1c23.O [LEVOFLOXACIN], the “diameter of the inhibition zone (DIZ)” value [25] was 26 mm and the “diameter of the inhibition zone (DIZ)” value [26] was 29.35 mm.
Work on CCOC(=O)C1=C(N)OC2C(C(=O)N(c3ccc(C)cc3)C(=S)N2c2ccc(C)cc2)C1c1ccccc1 (configuration not stated) yielded an MIC [27] of 15.6 µg/mL, an MIC [28] of 62.5 µg/mL (≈ 118 µM) and an MBC [29] of 62.5 µg/mL (≈ 118 µM). The MBC [30] was 500 µg/mL (≈ 948 µM), the MIC [31] was 31.2 µg/mL and the “inhibition (INH)” value [32] was 66.4%. For the same molecule, the MBC [33] was 62.5 µg/mL (≈ 118 µM), the MBC [34] was 125 µg/mL (≈ 237 µM) and the “inhibition (INH)” value [35] was 69.5%. For the same molecule, the “inhibition (INH)” value [36] was 79.7%, the MIC [37] was 31.2 µg/mL (≈ 59.1 µM) and the “inhibition (INH)” value [38] was 29.2%. The MIC [39] was 15.6 µg/mL (≈ 29.6 µM), the MIC [40] was 15.6 µg/mL (≈ 29.6 µM) and the “inhibition (INH)” value [41] was 85.1%. For the same molecule, the MBC [42] was 62.5 µg/mL (≈ 118 µM).
In the case of Cc1ccc(C2c3c(Nc4cccc([N+](=O)[O-])c4)ncnc3Oc3c2c(=O)oc2ccccc32)cc1 (configuration not stated), the MBC [43] is reported as 15.6 µg/mL (≈ 32.6 µM), the MIC [44] is reported as 15.6 µg/mL (≈ 32.6 µM) and the MBC [45] is reported as 15.6 µg/mL (≈ 32.6 µM). For the same molecule, the MIC [46] was 15.6 µg/mL (≈ 32.6 µM), the MBC [47] was 15.6 µg/mL (≈ 32.6 µM) and the MIC [48] was 15.6 µg/mL (≈ 32.6 µM). For the same molecule, the MIC [49] was 15.6 µg/mL (≈ 32.6 µM), the MIC [50] was 31.2 µg/mL (≈ 65.2 µM) and the MIC [51] was 15.6 µg/mL (≈ 32.6 µM).
Cc1nn(-c2ccccc2)c(-n2ccnc2)c1C1C(C#N)=C(N)Oc2[nH]c(=O)[nH]c(=O)c21 (configuration not stated) gave an IC50 [52] of 0.97 µg/mL (≈ 2.26 µM), an MIC [53] of 662 µg/mL (≈ 1550 µM) and an MIC [21] of 100 µg/mL (≈ 233 µM). For the same molecule, the MIC [22] was 200 µg/mL (≈ 467 µM), the inhibition at 100 µg/mL [23] was 92% and the inhibition at 250 µg/mL [24] was 95%.
